{
  "source": "patent US20250367229A1",
  "about": "“Treatment of Immune-Related Disorders, Kidney Disorders, Liver Disorders, Hemolytic Disorders, and Oxidative Stress-Associated Disorders Using NRH, NARH and Reduced Derivatives Thereof” (MitoPower LLC, priority 2021, published 2025)",
  "key": {"CD8^+ T cells": {"test_system": "CD8^+ T cells", "experiment": "Cell death including apoptosis (annexin V, flow cytometry) of CD8+ T cells with depolarized mitochondria", "type": "cell-based, human", "details": "250 μM, 24 hr, unstimulated or stimulated with anti-CD3 and anti-CD28 antibodies", "description": "(§1) PBMCs (10^6 cells per test group) obtained from healthy human adult donors were unstimulated or stimulated with anti-CD3 and anti-CD28 antibodies to induce T-cell activation, in the absence or presence of 250 μM of NRH or NRH-triacetate (NRHTA). Measurements were made at 5, 15 and 24 hr after treatment.\n(§2) After the indicated time of incubation, the PBMCs were stained with anti-CD3, anti-CD4 and anti-CD8 antibodies (Biolegend), JC-1 (1 μM, Thermo Fisher) and annexin V (Thermo Fisher) prior to analysis by flow cytometry. Annexin V binds to cell-surface phosphatidylserine, which is a marker for different forms of cell death including apoptosis and necrosis. The stained cells were re-suspended in phosphate-buffered saline (PBS) and acquired in a Cytek Aurora flow cytometer using a FlowJo software (v10) for analysis. About 200,000-300,000 cells were acquired in the flow cytometer for analysis. Standard procedures for spectral compensation were performed to obtain cell populations. Lymphocytes identified by forward and side scatter were gated to obtain CD3^+/CD4^+ and CD3^+/CD8^+ T-cell populations. Those T-cell populations were gated to identify the red and green signals for JC-1 aggregate and monomer, respectively, and annexin V. The percentage of cells staining green by JC-1 monomer was used to determine the percentage of cells with depolarized mitochondria. […]"}, "[1]": {"experiment": "Stability in human serum in vitro (absorbance over time)", "type": "in vitro ADME", "details": "100 μM, 37° C.", "description": "Three blood samples were collected from healthy human donors with the same blood group in serum separator vacutainer gel tubes. The samples were centrifuged at 1,800 g to separate serum. The serum samples obtained were pooled together into a separate tube.\nNR, NRH and NRH-triacetate (NRHTA) were initially dissolved in DMSO and then diluted with normal saline to obtain a 1 mM stock solution of each compound. 100 μL of stock solution was added to 900 μL of pooled serum to assess the stability of the test compound in human serum. 200 μL of saline with 1,800 μL of pooled serum was used to prepare a solution for blanking and as a reference measurement. The stock solutions were diluted in the pooled serum and normal saline to prepare 100 μM solutions of the test compounds.\nIn previous experiments, spectral scans between 190 nm and 1100 nm were performed to determine absorbance maxima for NR, NRH and NRHTA, which have maximal absorbance at 265 nm, 340 nm and 331 nm, respectively, in solution.\nThe stability of a test compound in human serum was determined by a change in the concentration of the compound as measured by a change in absorbance at the maximal absorbance wavelength for the compound as a function of time. The test compounds at 100 μM were incubated in human serum at 37° C. Absorbance measurements were made at 0 min (T0), 5 min, 30 min, 120 min, 240 min, 360 min and 1440 min (24 hr). The relative change in absorbance compared to T0 was plotted and used for statistical analysis. The analysis was performed in triplicates."}, "[2]": {"experiment": "Distribution of intraperitoneally injected NRH to whole blood, kidney and liver (LCMS/MS)", "type": "in vivo, Wistar Han rat", "details": "single intraperitoneal injection, 500 mg/kg, after 4 hr", "description": "Freshly weighed NRH (100 mg) was dissolved in 500 μL sterile IP water. The NRH solution was intraperitoneally injected into a healthy, male Wistar Han rat (200 g) at a single dose of 500 mg/kg. 500 μL of sterile IP water was intraperitoneally injected into another healthy, male Wistar Han rat (200 g) as a control.\nThe animals were euthanized by cervical dislocation under anesthesia after 4 hr. Whole blood was collected in K2EDTA vacutainer tubes by cardiac puncture using a 2 mL syringe. The liver and kidney were harvested subsequently by dissection. The tissues were placed in a petridish, rinsed with ice-cold saline, and then weighed. 72 mg of liver of the treated animal and 74.3 mg of liver of the untreated animal were homogenized, and 71.6 mg of kidney of the treated animal and 70.7 mg of kidney of the untreated animal were homogenized. Homogenization of the tissues was carried out separately in 3 mL of ice-cold methanol (about 20 mg/mL of tissue in methanol). The homogenate was snap-frozen in liquid nitrogen and maintained at −80° C. for analysis. The blood samples were maintained at 2-8° C. for analysis.\n250 μL of whole blood from the K2EDTA tubes was added to a tube containing 50 μL of 500 ng/ml of tolbutamide as the internal standard. 600 μL of ice-cold HPLC-grade methanol was added to this mixture for extraction of nicotinamide adenine dinucleotide (NAD^+) and NRH. The resulting mixture was mixed well and centrifuged at 12500 rpm for 10 min. The supernatant was measured for NAD^+ and NRH by LCMS/MS. For the liver and kidney tissues, 250 μL of the tissue homogenate was processed in the same manner."}, "red blood cells (RBCs)": {"test_system": "red blood cells (RBCs)", "experiment": "H2O2-induced hemolysis in vitro", "type": "cell-based", "details": "2000, 200 and 20 μM, pre-incubation 1 hr at 37° C., then H2O2 4 hr", "description": "Individual test compounds were dissolved in 0.9% normal saline to prepare 0.3 M stock solutions. A 0.3 M stock solution was added to a 20% suspension of washed red blood cells (RBCs) in saline to obtain final concentrations of 2000 μM, 200 μM and 20 μM of the compound. The RBC suspensions were incubated with the test compound at 37° C. for 1 hr prior to testing. A 2.5% H2O2 solution was prepared fresh by dilution with normal saline and chilled at 2-8° C. before use. Each RBC suspension containing the test compound was split into tubes A and B. 250 μL of the chilled H2O2 solution was added to 250 μL of RBC suspension in each tube while maintaining the tubes in an ice bath. The tubes were incubated at 37° C. for 4 hr, and then 4.5 mL of saline or de-ionized water was added to tube A or tube B, respectively. After the tubes were incubated for 10 min, the mixture in the tubes was centrifuged at 1800 g, and then absorbance was measured in the supernatant at 540 nm. The percentage of hemolysis was calculated as: […]"}, "CD4^+ T cells": {"test_system": "CD4^+ T cells", "experiment": "Cell death including apoptosis (annexin V, flow cytometry) of CD4+ T cells with depolarized mitochondria", "type": "cell-based, human", "details": "250 μM, 24 hr, unstimulated or stimulated with anti-CD3 and anti-CD28 antibodies", "description": "as §1, §2"}},
  "data": [
    {"smiles": "NC(=O)C1=CN([C@@H]2O[C@H](CO)[C@@H](O)[C@H]2O)C=CC1", "note": "[NRH, N-(β-D-ribofuranosyl)dihydronicotinamide]", "values": [
      {"measurement": "cell death including apoptosis of CD8+ T cells with depolarized mitochondria", "setting": "CD8^+ T cells", "result": "reduced cell death"},
      {"measurement": "compound remaining intact in human serum after 6 hr", "setting": "[1]; 6 hr", "result": "Most of both NRH and NRH-triacetate remained intact"},
      {"measurement": "stability in human serum compared with NR", "setting": "[1]; up to 24 hr, p<0.05", "result": "much more stable"},
      {"measurement": "concentration of NRH in the kidney (area ratio NRH/IS) versus vehicle", "setting": "[2]", "result": "increased concentrations"},
      {"measurement": "concentration of NRH in the liver (area ratio NRH/IS) versus vehicle", "setting": "[2]", "result": "increased concentrations"},
      {"measurement": "concentration of NRH in whole blood (area ratio NRH/IS) versus vehicle", "setting": "[2]", "result": "increased concentrations"},
      {"measurement": "H2O2-induced hemolysis", "setting": "red blood cells (RBCs)", "result": "reduced H2O2-induced hemolysis"},
      {"measurement": "cell death including apoptosis of CD4+ T cells with depolarized mitochondria", "setting": "CD4^+ T cells", "result": "reduced cell death"}
    ]}
  ]
}
